Holding throughout (assay type): functional
Assay [1] relates to Rattus norvegicus. Briefly: Hallucinogenic property was determined in groups of MDMA trained rats and percentage of animals disrupted was reported at a dose 3.88 (umol/kg),(number of animals = 11).
Assay [2] concerns Rattus norvegicus. Description: Tested for stimulus generation in rats trained to discriminate LSD from saline at a dose 3.88 (umol/kg),(number of animals = 10).
The subject of assay [3] is Rattus norvegicus. Briefly: Hallucinogenic property was determined in groups of LSD trained rats and percentage of animals disrupted was reported at 5.82 (umol/kg),(number of animals = 11).
Assay [4] deals with Rattus norvegicus. Description: Tested for stimulus generation in rats trained to discriminate LSD from saline at a dose 7.77 (umol/kg),(number of animals = 15).
The test system of assay [5] is Rattus norvegicus. Briefly: Percentage of animals disrupted was determined in groups of LSD trained rats at a dose of 10.67 (umol/kg),(no of animals = 5).
For assay [6], the system named is Rattus norvegicus. Briefly: Tested for stimulus generation in rats trained to discriminate +/-MDMA from saline at 1.94 (umol/kg),(number of animals = 10).
Assay [7] deals with Rattus norvegicus. Description: Percentage of animals disrupted was determined in groups of MDMA trained rats at a dose 1.94 (umol/kg),(no of animals=10).
The subject of assay [8] is Rattus norvegicus. Description: Hallucinogenic property was determined in groups of MDMA trained rats and percentage of animals disrupted was reported at a dose 11.64 (umol/kg),(number of animals = 6).
For assay [9], the system named is Rattus norvegicus. Briefly: Tested for stimulus generation in rats trained to discriminate +/-MDMA from saline at 7.76 (umol/kg),(number of animals = 11).
Assay [10] has as its system Rattus norvegicus. Briefly: Hallucinogenic property was determined in groups of MDMA trained rats and percentage of animals disrupted was reported at a dose 7.76 (umol/kg),(number of animals = 11).
In assay [11] the test system is Rattus norvegicus. Briefly: Hallucinogenic property was determined in groups of LSD trained rats and percentage of animals disrupted was reported at a dose 3.88 (umol/kg),(number of animals = 10).
Assay [12] concerns Rattus norvegicus. Briefly: Tested for stimulus generation in rats trained to discriminate +/-MDMA from saline at 3.88 (umol/kg),(number of animals = 11).
Assay [13] relates to Rattus norvegicus. Description: Hallucinogenic property was determined in groups of LSD trained rats and percentage of animals disrupted was reported at a dose 7.77 (umol/kg),(number of animals = 15).
The subject of assay [14] is Rattus norvegicus. Briefly: Tested for stimulus generation in rats trained to discriminate LSD from saline at a dose 5.82 (umol/kg),(number of animals = 11).
Assay [15] has as its system Rattus norvegicus. Briefly: Tested for stimulus generation in rats trained to discriminate LSD from saline at a dose 9.70 (umol/kg),(number of animals = 13).
Assay [16] deals with Rattus norvegicus. Briefly: Hallucinogenic property was determined in groups of LSD trained rats and percentage of animals disrupted was reported at a dose 9.70 (umol/kg),(number of animals = 13).
For assay [17], the system named is Rattus norvegicus. Briefly: Tested for stimulus generation in rats trained to discriminate LSD from saline at a dose 0.093(umol/kg) (number of animals = 8).
Assay [18] has as its system Rattus norvegicus. Briefly: Hallucinogenic property was determined in groups of LSD trained rats and percentage of animals disrupted was reported at a dose 0.012 (umol/kg),(number of animals = 8).
Assay [19] deals with Rattus norvegicus. Description: Tested for stimulus generation in rats trained to discriminate LSD from saline at a dose 0.023 (umol/kg) (number of animals = 8).
Assay [20] deals with Rattus norvegicus. Briefly: Hallucinogenic property was determined in groups of LSD trained rats and percentage of animals disrupted was reported at a dose 0.093(umol/kg) (number of animals = 8).
The species named for assay [21] is Rattus norvegicus. Description: Inhibitory activity was determined LSD trained rats.
The test system of assay [22] is Rattus norvegicus. Description: Tested for stimulus generation in rats trained to discriminate LSD from saline at a dose 0.186 (umol/kg),(number of animals = 8).
The subject of assay [23] is Rattus norvegicus. Description: Tested for stimulus generation in rats trained to discriminate LSD from saline at a dose 0.046(umol/kg) (number of animals = 9).
In assay [24] the test system is Rattus norvegicus. Briefly: Hallucinogenic property was determined in groups of LSD trained rats and percentage of animals disrupted was reported at a dose 0.046(umol/kg) (number of animals = 9).
In assay [25] the test system is Rattus norvegicus. Briefly: Hallucinogenic property was determined in groups of LSD trained rats and percentage of animals disrupted was reported at a dose 0.186 (umol/kg),(number of animals = 8).
For assay [26], the system named is Rattus norvegicus. Description: Tested for stimulus generation in rats trained to discriminate LSD from saline at a dose 0.012 (umol/kg),(number of animals = 8).
Assay [27] relates to Rattus norvegicus. Briefly: Hallucinogenic property was determined in groups of LSD trained rats and percentage of animals disrupted was reported at 0.023 (umol/kg) (number of animals = 8).

SMILES strings stand for the structures. Several values for one entry are separate records, joined by “and”; a condition that tells them apart may be missing. Equal values may be shown once.

On to `COc1cc(C)c(OC)c2c1CC(N)CC2` (configuration not stated), for which the D in assay [1] was 27%; in assay [3] it was 27%; in assay [5], 100%; in assay [7], 20%; in [8], 83%; in assay [10] it was 27%. Also, the values for the D in assay [11], in [13] and in assay [16] were 20%, 47% and 69%, respectively. The SDL was found to be 25% in [2]; 13% in assay [4]; 38% in assay [6]; 38% in assay [9]; 50% in assay [12]; 38% in [14]. This compound also had an SDL in assay [15] of 0%.
Consider `CCN(CC)C(=O)[C@@H]1C=C2c3cccc4[nH]cc(c34)C[C@H]2N(C)C1` [LYSERGIDE], for which the SDL in [17] is 88%; in assay [19], 0%; in assay [22], 100%; in [23], 44%; in assay [26] it was 13%. The D in [18], in assay [20], in assay [24], in assay [25] and in assay [27] was 0% in each case. Also, the ED50 in assay [21] is 0.048 µM/kg and 0.021 µM/kg.

The values are drawn from ChEMBL document CHEMBL1125092, “Nonneurotoxic tetralin and indan analogues of 3,4-(methylenedioxy)amphetamine (MDA)” (J Med Chem, 1990).
